Test results taken from US4474967A, “8-Deutero and 8-tritio-substituted derivatives of D-4S-6-fluoro-spiro-[chroman-4,4'-imidazolidine]-2',5'-dione” (Pfizer Inc., priority 1983, dated 1984).

Tested on: aldose reductase
Experiment: Inhibition of aldose reductase enzyme activity (S. Hayman et al., as modified by K. Sestanj et al.)
Assay type: biochemical
Details: partially purified aldose reductase enzyme from calf lens
Experimental: The following asymmetric spiro-hydantoin compounds of Examples 1 and 2, respectively, were tested at a concentration level of 10^-6 M for their ability to reduce or inhibit aldose reductase enzyme activity via the procedure of S. Hayman et al., as described in the Journal of Biological Chemistry, Vol. 240, p. 877(1965) and as modified by K. Sestanj et al. in U.S. Pat. No. 3,821,383. In each case, the substrate employed was partially purified aldose reductase enzyme obtained from calf lens.

O=C1NC(=O)[C@@]2(CCOc3c(F)cc(F)cc32)N1 [Product of Example 1, 4S-6,8-difluoro-spiro-[chroman-4,4'-imidazolidine]-2',5'-dione]
% Inhibition at 10^-6 M: 74%

O=C1NC(=O)[C@@]2(CCOc3c(Cl)cc(F)cc32)N1 [Product of Example 2, 4S-6-fluoro-8-chloro-spiro-[chroman-4,4'-imidazolidine]-2',5'-dione]
% Inhibition at 10^-6 M: 64%
